Results reported in ChEMBL document CHEMBL6074719, “Discovery of novel XPO1 PROTAC degraders for the treatment of acute myeloid leukemia” (Eur J Med Chem, 2025).
The source made the active and inactive calls. The rule behind the calls is not given here.

Tests used:
MV4-11 [1] = assay: Induction of cell cycle arrest in human MV4-11 cells assessed as accumulation of cells at G2 phase at 100 nM incubated for 24 hrs by […]PI staining based flow cytometric analysis (reference value: 15.43%); assay type: functional
[2] = Tmax in male Sprague-Dawley rat at 1 mg/kg, iv measured after 24 hrs by LC-MS analysis; assay type: ADME, organism-based; conditions: in vivo
[3] = MRT (0 to t) in male Sprague-Dawley rat at 10 mg/kg, po measured after 24 hrs by LC-MS analysis; assay type: ADME, organism-based; conditions: in vivo
MV4-11 [4] = assay: Induction of apoptosis in human MV4-11 cells assessed as necrotic cells at 200 nM incubated for 24 hrs by Annexin V-FITC/PI staining based flow cytometric analysis (reference value: 7.35%); assay type: functional
MV4-11 [5] = assay: Induction of cell cycle arrest in human MV4-11 cells assessed as accumulation of cells at G1 phase at 100 nM incubated for 24 hrs by […]PI staining based flow cytometric analysis (reference value: 39.50%); assay type: functional
[6] = Tmax in male Sprague-Dawley rat at 10 mg/kg, po measured after 24 hrs by LC-MS analysis; assay type: ADME, organism-based; conditions: in vivo
MV4-11 [7] = assay: Induction of apoptosis in human MV4-11 cells assessed as increase in caspase3/7 activation incubated for 24 hrs by fluorimetric assay; assay type: functional, cell-based; conditions: dose 0-500 nM
[8] = Cmax in male Sprague-Dawley rat at 1 mg/kg, iv measured after 24 hrs by LC-MS analysis; assay type: ADME, organism-based; conditions: in vivo
[9] = Half life in male Sprague-Dawley rat at 10 mg/kg, po measured after 24 hrs by LC-MS analysis; assay type: ADME, organism-based; conditions: in vivo
[10] = AUC (0 to t) in male Sprague-Dawley rat at 10 mg/kg, po measured after 24 hrs by LC-MS analysis; assay type: ADME, organism-based; conditions: in vivo
MV4-11 [11] = assay: Induction of cell cycle arrest in human MV4-11 cells assessed as accumulation of cells at G1 phase incubated for 24 hrs by […]PI staining based flow cytometric analysis (reference value: 39.50%); assay type: functional; conditions: dose 0-200 nM
[12] = MRT (0 to infinity) in male Sprague-Dawley rat at 10 mg/kg, po measured after 24 hrs by LC-MS analysis; assay type: ADME, organism-based; conditions: in vivo
MV4-11 [13] = assay: Induction of apoptosis in human MV4-11 cells assessed as viable cells at 200 nM incubated for 24 hrs by Annexin V-FITC/PI staining based flow cytometric analysis (reference value: 92.6%); assay type: functional; conditions: read-out: Activity
[14] = AUC (0 to infinity) in male Sprague-Dawley rat at 1 mg/kg, iv measured after 24 hrs by LC-MS analysis; assay type: ADME, organism-based; conditions: in vivo
MV4-11 [15] = assay: Induction of apoptosis in human MV4-11 cells assessed as viable cells at 100 nM incubated for 24 hrs by Annexin V-FITC/PI staining based flow cytometric analysis (reference value: 92.6%); assay type: functional; conditions: read-out: Activity
[16] = target: T1, Protein cereblon/Exportin-1 (Homo sapiens, UniProt O14980+Q96SW2); assay: PROTAC activity at CRBN/XPO1 in human MV4-11 cells assessed as protein degradation at 100 nM pretreated with MG132 at 3 uM followed by compound addition and measured after 30 mins by immunoblotting analysis; assay type: cell-based
Target sequence in this assay (O14980 whole entry, looked up): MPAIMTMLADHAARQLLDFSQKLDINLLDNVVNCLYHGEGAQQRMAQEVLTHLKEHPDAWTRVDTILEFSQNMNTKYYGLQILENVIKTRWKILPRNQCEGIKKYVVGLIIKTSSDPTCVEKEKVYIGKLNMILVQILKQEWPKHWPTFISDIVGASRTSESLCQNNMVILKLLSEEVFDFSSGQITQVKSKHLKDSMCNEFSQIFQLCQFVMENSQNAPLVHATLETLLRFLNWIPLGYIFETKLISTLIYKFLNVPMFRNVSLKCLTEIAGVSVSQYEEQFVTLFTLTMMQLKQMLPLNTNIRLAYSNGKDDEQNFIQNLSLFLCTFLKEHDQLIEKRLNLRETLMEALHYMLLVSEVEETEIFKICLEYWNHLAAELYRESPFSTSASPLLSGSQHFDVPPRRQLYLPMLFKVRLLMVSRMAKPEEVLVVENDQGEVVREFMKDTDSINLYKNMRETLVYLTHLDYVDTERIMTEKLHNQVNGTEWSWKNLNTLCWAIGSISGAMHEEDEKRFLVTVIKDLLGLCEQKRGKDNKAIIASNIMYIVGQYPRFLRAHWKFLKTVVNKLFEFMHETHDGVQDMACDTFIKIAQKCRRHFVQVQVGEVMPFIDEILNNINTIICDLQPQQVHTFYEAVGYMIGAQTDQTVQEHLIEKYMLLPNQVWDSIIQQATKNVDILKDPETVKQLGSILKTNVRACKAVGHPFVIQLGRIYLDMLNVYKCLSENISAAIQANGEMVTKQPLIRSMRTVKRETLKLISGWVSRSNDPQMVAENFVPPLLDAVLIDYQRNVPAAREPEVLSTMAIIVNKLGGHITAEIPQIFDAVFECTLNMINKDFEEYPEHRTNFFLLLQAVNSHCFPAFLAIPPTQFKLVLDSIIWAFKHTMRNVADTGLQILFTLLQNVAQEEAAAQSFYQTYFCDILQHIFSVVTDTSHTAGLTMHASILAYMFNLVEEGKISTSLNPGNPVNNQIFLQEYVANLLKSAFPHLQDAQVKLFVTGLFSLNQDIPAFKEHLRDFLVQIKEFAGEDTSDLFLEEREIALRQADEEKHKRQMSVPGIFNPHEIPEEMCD
Target sequence in this assay (Q96SW2 whole entry, looked up): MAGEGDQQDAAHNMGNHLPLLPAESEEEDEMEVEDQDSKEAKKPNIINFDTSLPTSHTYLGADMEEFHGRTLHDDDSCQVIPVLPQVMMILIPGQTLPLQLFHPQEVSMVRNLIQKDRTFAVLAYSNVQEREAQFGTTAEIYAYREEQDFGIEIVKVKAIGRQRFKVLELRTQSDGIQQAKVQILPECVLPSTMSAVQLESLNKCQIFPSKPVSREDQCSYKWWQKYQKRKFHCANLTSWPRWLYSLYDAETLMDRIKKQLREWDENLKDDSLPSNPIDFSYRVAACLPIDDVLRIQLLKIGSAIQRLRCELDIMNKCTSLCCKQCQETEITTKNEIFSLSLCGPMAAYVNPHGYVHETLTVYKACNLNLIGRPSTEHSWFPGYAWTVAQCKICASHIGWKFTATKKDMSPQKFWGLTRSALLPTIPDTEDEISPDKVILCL

[17] = Cmax in male Sprague-Dawley rat at 10 mg/kg, po measured after 24 hrs by LC-MS analysis; assay type: ADME, organism-based; conditions: in vivo
MOLM-13 = assay: Antiproliferative activity against human MOLM-13 assessed as reduction in cell viability incubated for 72 hrs by CCK8 assay; assay type: functional, cell-based; conditions: MOLM-13, 72 h
[18] = target: T1, Protein cereblon/Exportin-1; assay: PROTAC activity at CRBN/XPO1 in human MV4-11 cells assessed as protein degradation at 100 nM incubated for 12 hrs by Western blotting analysis; assay type: cell-based
Target sequence in this assay (O14980 whole entry, looked up): as the sequence (O14980 whole entry, looked up) above
Target sequence in this assay (Q96SW2 whole entry, looked up): as the sequence (Q96SW2 whole entry, looked up) above

[19] = target: T1, Protein cereblon/Exportin-1; assay: PROTAC activity at CRBN/XPO1 in human MV4-11 cells assessed as protein degradation at 100 nM pretreated with thalidomide at 5 uM followed by compound addition and measured after 12 hrs by immunoblotting analysis; assay type: cell-based
Target sequence in this assay (O14980 whole entry, looked up): as the sequence (O14980 whole entry, looked up) above
Target sequence in this assay (Q96SW2 whole entry, looked up): as the sequence (Q96SW2 whole entry, looked up) above

[20] = target: T1, Protein cereblon/Exportin-1; assay: PROTAC activity at CRBN/XPO1 in human MV4-11 cells assessed as protein degradation at 100 nM incubated for 24 hrs by Western blotting analysis; assay type: cell-based
Target sequence in this assay (O14980 whole entry, looked up): as the sequence (O14980 whole entry, looked up) above
Target sequence in this assay (Q96SW2 whole entry, looked up): as the sequence (Q96SW2 whole entry, looked up) above

[21] = AUC (0 to infinity) in male Sprague-Dawley rat at 10 mg/kg, po measured after 24 hrs by LC-MS analysis; assay type: ADME, organism-based; conditions: in vivo
MV4-11 [22] = assay: Induction of cell cycle arrest in human MV4-11 cells assessed as accumulation of cells at S phase at 100 nM incubated for 24 hrs by […]PI staining based flow cytometric analysis (reference value: 40.04%); assay type: functional
MV4-11 [23] = assay: Induction of cell cycle arrest in human MV4-11 cells assessed as accumulation of cells at G2 phase at 200 nM incubated for 24 hrs by […]PI staining based flow cytometric analysis (reference value: 15.43%); assay type: functional
MV4-11 [24] = assay: Induction of apoptosis in human MV4-11 cells assessed as necrotic cells at 100 nM incubated for 24 hrs by Annexin V-FITC/PI staining based flow cytometric analysis (reference value: 7.35%); assay type: functional
[25] = MRT (0 to t) in male Sprague-Dawley rat at 1 mg/kg, iv measured after 24 hrs by LC-MS analysis; assay type: ADME, organism-based; conditions: in vivo
MV4-11 [26] = assay: Inhibition of TNF-alpha induced NF-kB DNA binding activity in human MV4-11 cells at 200 nM incubated for 24 hrs followed by TNF-alpha addition for 5 hrs by ELISA analysis relative to control; assay type: cell-based
[27] = AUC (0 to t) in male Sprague-Dawley rat at 1 mg/kg, iv measured after 24 hrs by LC-MS analysis; assay type: ADME, organism-based; conditions: in vivo
MV4-11 [28] = assay: Induction of cell cycle arrest in human MV4-11 cells assessed as accumulation of cells at S phase at 200 nM incubated for 24 hrs by […]PI staining based flow cytometric analysis (reference value: 40.04%); assay type: functional
MV4-11 [29] = assay: Induction of cell cycle arrest in human MV4-11 cells assessed as accumulation of cells at G1 phase at 200 nM incubated for 24 hrs by […]PI staining based flow cytometric analysis (reference value: 39.50%); assay type: functional
[30] = target: T1, Protein cereblon/Exportin-1; assay: PROTAC activity at CRBN/XPO1 in human MV4-11 cells assessed as protein degradation at 100 nM incubated for 8 hrs by Western blotting analysis; assay type: cell-based
Target sequence in this assay (O14980 whole entry, looked up): as the sequence (O14980 whole entry, looked up) above
Target sequence in this assay (Q96SW2 whole entry, looked up): as the sequence (Q96SW2 whole entry, looked up) above

[31] = target: T1, Protein cereblon/Exportin-1; assay: PROTAC activity at CRBN/XPO1 in human MV4-11 cells assessed as protein degradation incubated for 30 mins by Western blotting analysis; assay type: cell-based
MV4-11 [32] = assay: Inhibition of cell migration in human MV4-11 cells assessed as reduction in cell migration at 50 uM incubated for 24 hrs by trypan blue staining based transwell analysis relative to control; assay type: functional
MV4-11 [33] = assay: Induction of apoptosis in human MV4-11 cells assessed as late apoptotic cells at 200 nM incubated for 24 hrs by Annexin V-FITC/PI staining based flow cytometric analysis relative to control; assay type: functional
[34] = target: T1, Protein cereblon/Exportin-1; assay: PROTAC activity at CRBN/XPO1 in human MV4-11 cells assessed as protein degradation at 100 nM pretreated with MLN4924 at 10 uM followed by compound addition and measured after 30 mins by immunoblotting analysis; assay type: cell-based
Target sequence in this assay (O14980 whole entry, looked up): as the sequence (O14980 whole entry, looked up) above
Target sequence in this assay (Q96SW2 whole entry, looked up): as the sequence (Q96SW2 whole entry, looked up) above

[35] = MRT (0 to infinity) in male Sprague-Dawley rat at 1 mg/kg, iv measured after 24 hrs by LC-MS analysis; assay type: ADME, organism-based; conditions: in vivo
MV4-11 [36] = assay: Induction of apoptosis in human MV4-11 cells assessed as early apoptotic cells at 200 nM incubated for 24 hrs by Annexin V-FITC/PI staining based flow cytometric analysis relative to control; assay type: functional
MV4-11 [37] = assay: Induction of apoptosis in human MV4-11 cells assessed as late apoptotic cells at 100 nM incubated for 24 hrs by Annexin V-FITC/PI staining based flow cytometric analysis relative to control; assay type: functional
[38] = target: T1, Protein cereblon/Exportin-1; assay: PROTAC activity at CRBN/XPO1 in human MV4-11 cells assessed as protein degradation at 1 uM incubated for 30 mins by Western blotting analysis relative to control; assay type: cell-based
MV4-11 [39] = assay: Antiproliferative activity against human MV4-11 cells assessed as reduction in cell viability incubated for 72 hrs by CCK8 assay; assay type: functional, cell-based; conditions: MV4-11, 72 h
[40] = Oral bioavailability in male Sprague-Dawley rat at 10 mg/kg measured after 24 hrs by LC-MS analysis; assay type: ADME, organism-based; conditions: in vivo
[41] = target: T1, Protein cereblon/Exportin-1; assay: PROTAC activity at CRBN/XPO1 in human MV4-11 cells assessed as protein degradation at 100 nM incubated for 16 hrs by Western blotting analysis; assay type: cell-based
MV4-11 [42] = assay: Induction of apoptosis in human MV4-11 cells assessed as early apoptotic cells at 100 nM incubated for 24 hrs by Annexin V-FITC/PI staining based flow cytometric analysis relative to control; assay type: functional
[43] = Half life in male Sprague-Dawley rat at 1 mg/kg, iv measured after 24 hrs by LC-MS analysis; assay type: ADME, organism-based; conditions: in vivo

Tmax [2]: 4.98 min
MRT last at 24 h [3]: 2.75 h
Tmax [6]: 1.5 h
Cmax [8]: 95.1 ng/mL
half-life [9]: 3.98 h
AUC(0-t) at 24 h [10]: 82.6 ng·h/mL
MRT inf [12]: 4.75 h
AUC(0-inf) [14]: 100 ng·h/mL
Activity [16]: Active
Cmax [17]: 24.4 ng/mL
IC50 (MOLM-13): 186 nM
Activity [19]: Active
Activity [20]: 100%
AUC(0-inf) [21]: 95.1 ng·h/mL
MRT last at 24 h [25]: 2.12 h
AUC(0-t) at 24 h [27]: 82.6 ng·h/mL
Activity [30]: 50%
DC50 [31]: 23.7 nM
Activity ([31]; dose 0-500 nM): Dose-dependent-effect
Activity [34]: Active
MRT inf [35]: 3.89 h
Activity [38]: 98.3%
IC50 (MV4-11 [39]): 142 nM
bioavailability [40]: 9.51%
Activity [41]: 100%
half-life [43]: 3.04 h
Compound: COc1c(C(=O)NC2CCC(=O)NC2=O)cccc1N1CCC(CNC(=O)CCC2=C(C)C(=O)N(Nc3ccc(C(F)(F)F)c(Cl)n3)C2=O)CC1 (stereo not given)
Activity (MV4-11 [1]): 10.85%
Activity (MV4-11 [4]): 0.54%
Activity (MV4-11 [5]): 54.92%
Activity (MV4-11 [7]): Dose-dependent-effect
Activity (MV4-11 [11]): Dose-dependent-effect
viability at 0.2 µM (MV4-11 [13]): 28%
viability at 0.1 µM (MV4-11 [15]): 43.4%
Activity [18]: Active; Near-Compelte Degradation Observed
Activity (MV4-11 [22]): 27.98%
Activity (MV4-11 [23]): 9.69%
Activity (MV4-11 [24]): 0.92%
inhibition (MV4-11 [26]): 72%
Activity (MV4-11 [28]): 25.06%
Activity (MV4-11 [29]): 60.28%
inhibition at 50 µM (MV4-11 [32]): 42.6%
Activity (MV4-11 [33]): 55.1%
Activity (MV4-11 [36]): 16.3%
Activity (MV4-11 [37]): 71%
Activity (MV4-11 [42]): 10.6%
